The test system of one series is golden hamsters. In words: Effect of daidzin on free choice ethanol intake in golden hamsters. It counts as in vivo, golden hamster. Conditions: 10 mg/day. The text has this: Hamsters were chosen as described in Example 4 based on previous reports that they display high ethanol intake and preference in comparison with several other mammalian species, and that this was correlated with differences in ethanol metabolism. Kulkosky and Cornell, 1979, supra.
The animals used in these experiments are adult male golden hamsters (outbred, Lakeview Lak: LVG[SYR]), purchased from Charles River Laboratories, Wilmington, Mass. 01887. Upon arrival, hamsters are housed (4 per cage) with ad libitum access to food and tap water in a room maintained at 23° C. on a 12/12 light/dark cycle (light on 0600-1800 hr.) for 1 week. Following this acclimation period, each hamster is transferred to an individual stainless steel metabolic cage (26×18×17.5 cm) with a wire mesh floor for the remainder of the experiment. Each cage is equipped with a stainless steel food hopper located on the right side of the front wall which was kept filled with food. Two 50 ml drinking bottles fitted with stainless steel sipper tubes are placed on the left side of the front wall. Under the sipper tubes are funnels which collect and direct spillage to tubes placed outside of the cages. Fluids are provided mainly during the dark cycle (1800-0800 hr.) and fluid intake is measured in the morning at the same time each day, for example, at 0800 hr. During this baseline period, for example, 8 days, two drinking solutions are provided for each animal. One is tap water; the other is a 30% v/v solution of ethanol (100% USP). The position of the two drinking bottles on each cage is alternated daily to prevent the development of positional preference.
In other experiments, subcutaneous administration is preferably omitted, and each hamster receives only daily oral administration by feeding as described herein. […] This decline in alcohol intake was accompanied by a concomitant increase in water intake.

A short description of series [1]: Plasma drug concentration versus time after a single 10 mg dose. The following applies: golden hamster. It counts as in vivo. The source says:
Five hours later the plasma concentrations of both inhibitors were still above […], far above their competitive inhibition constants for ALDH-I.

The next series concerns ADH isozymes. In words: Inhibition of ADH. It counts as biochemical, human.
The test system of the next series is mice. The following applies: subcutaneous in propylene glycol; cited from earlier work.
Another series concerns the target T1, ALDH-II (Homo sapiens, UniProt P00352).
T1 sequence (P00352 1-501): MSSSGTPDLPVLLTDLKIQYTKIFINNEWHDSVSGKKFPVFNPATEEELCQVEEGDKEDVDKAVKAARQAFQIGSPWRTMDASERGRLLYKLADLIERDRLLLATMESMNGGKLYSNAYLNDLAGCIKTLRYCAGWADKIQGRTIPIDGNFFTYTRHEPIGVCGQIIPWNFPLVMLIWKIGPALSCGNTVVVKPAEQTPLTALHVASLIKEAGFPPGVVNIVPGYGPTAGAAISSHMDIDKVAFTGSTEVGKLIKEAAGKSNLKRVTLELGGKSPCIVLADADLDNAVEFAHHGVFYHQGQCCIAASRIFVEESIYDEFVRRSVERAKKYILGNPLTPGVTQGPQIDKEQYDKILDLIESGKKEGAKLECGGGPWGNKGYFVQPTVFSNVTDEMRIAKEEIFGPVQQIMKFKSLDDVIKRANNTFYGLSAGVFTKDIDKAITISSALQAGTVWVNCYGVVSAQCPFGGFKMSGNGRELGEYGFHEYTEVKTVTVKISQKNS
In words: Competitive inhibition of ALDH-II with acetaldehyde as substrate. It counts as biochemical. Set-up: A liver sample (50 g wet weight) with the usual Caucasian ALDH phenotype (both ALDH-I and ALDH-II present); from tissue; host or cells: human liver (autopsy), purified by CM-52, AMP-agarose and DEAE HPLC.

Converted amounts (≈) assume the structure as drawn.

For `O=c1c(-c2ccc(O)cc2)coc2cc(O[C@@H]3O[C@H](CO)[C@@H](O)[C@H](O)[C@H]3O)ccc12` [Daidzin, 7-glucoside of daidzein], in the series with golden hamsters, the “effect apparent after the first dose, hamster Number 9” value was “fourth day after the first dose”. Also, the “start of decline of alcohol intake after the first dose, hamster Number 6” value with golden hamsters worked out at 2 days. Besides, the “total fluid intake during daidzin administration” value with golden hamsters (hamster Number 6) was “slightly decreased”. In addition, the “total water intake (water bottle plus water in ethanol mixture)” value in the series on golden hamsters (hamster Number 6) is “stayed nearly constant”. For the same molecule, the “time to maximal plasma concentration after injection” value in series [1] (i.p.) is “within about an hour after injection”. The Cmax in series [1] (plasma, ip, read-out: maximal plasma concentration) is 6 µM. Besides, in the series on ADH isozymes, the ADH inhibition result is listed as “inhibits the second but not the first step in human ethanol metabolism”. Also, the spasmolytic effect result with mice is given as “no spasmolytic effect”. Further, the solubility in the series “physchem” (10% aqueous polyvinylpyrrolidone 40, organic solvent or mixture) was around 2000 µM (≈ 833 µg/mL); in the series “physchem” (20% peg 400 in water, organic solvent or mixture), 4500 µM (≈ 1870 µg/mL); in the series “physchem” (20% peg/water, beta-cyclodextrin, organic solvent or mixture), 9400 µM (≈ 3910 µg/mL); in the series “physchem” (saturated digitonin solution), around 2000 µM (≈ 833 µg/mL); in “physchem” (water) it was 200 µM (≈ 83.3 µg/mL). Also, the Ki at ALDH-II came to 28 µM.
